{
  "source": "patent US6783757B2",
  "about": "“Composition and method for increasing exorphin catabolism to treat autism” (Kirkman Group, Inc., priority 2000, dated 2004)",
  "origin": "cited, not measured here",
  "test_system": "DPPIV",
  "details": "cultured mouse intestinal wall cells (enterocyte cells)",
  "data": [
    {"smiles": "O=C[C@H](O)[C@@H](O)[C@@H](O)[C@H](O)CO", "note": "[galactose]", "values": [
      {"measurement": "expression of DPPIV", "result": "increase the expression of DPPIV"}
    ]}
  ]
}
